The target in the assay is recombinant CD73 (Homo sapiens (Human), UniProt P21589). The experiment in a line: Inhibition of the CD73 enzyme in vitro (soluble recombinant CD73, AMP, Malachite Green). The assay is classed as biochemical. Particulars: recombinant CD73 0.5 nM, AMP 50 μM. The method, then:
The concentration of inorganic phosphate was determined using a phosphate standard curve.

pIC50: −log10 of the molar value.

Sequence of recombinant CD73 (P21589 27-547): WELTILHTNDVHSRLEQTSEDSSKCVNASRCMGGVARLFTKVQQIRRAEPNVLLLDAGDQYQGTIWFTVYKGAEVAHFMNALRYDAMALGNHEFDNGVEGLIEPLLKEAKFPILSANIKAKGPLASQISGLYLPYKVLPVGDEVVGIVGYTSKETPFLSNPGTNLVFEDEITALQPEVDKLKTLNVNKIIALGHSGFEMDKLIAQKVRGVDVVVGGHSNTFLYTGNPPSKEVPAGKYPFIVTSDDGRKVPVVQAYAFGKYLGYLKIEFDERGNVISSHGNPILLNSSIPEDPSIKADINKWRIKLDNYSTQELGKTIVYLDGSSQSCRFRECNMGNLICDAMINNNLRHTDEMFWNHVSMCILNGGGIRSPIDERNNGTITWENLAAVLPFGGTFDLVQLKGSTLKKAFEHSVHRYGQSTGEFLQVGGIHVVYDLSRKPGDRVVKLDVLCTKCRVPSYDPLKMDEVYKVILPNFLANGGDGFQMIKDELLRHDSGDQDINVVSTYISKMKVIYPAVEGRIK

In the case of `CCOC(=O)C(Cc1ccccc1)(OC[C@H]1O[C@@H](n2cnc3c(NCc4ccccc4)nc(Cl)nc32)[C@H](O)[C@@H]1O)C(=O)OCC`, the pIC50 (class symbols (Table 4)) is above 6.00.
`CCOC(=O)C(Cc1ccc(OC(F)(F)F)cc1)(OC[C@H]1O[C@@H](n2cnc3c(N)nc(Cl)nc32)[C@@H](F)[C@@H]1O)C(=O)O` (single isomer, unassigned) [compound 38]: the negative logarithm of the IC50 (pIC50) (30 minutes at room temperature) was 6.16.
In the case of `Nc1nc(Cl)nc2c1ncn2[C@@H]1O[C@H](COC(Cc2cccc(Oc3ccccc3)c2)(C(=O)O)C(=O)O)[C@@H](O)[C@@H]1F` [compound 13, 2-(((2R,3R,4S,5R)-5-(6-amino-2-chloro-9H-purin-9-yl)-4-fluoro-3-hydroxytetrahydrofuran-2-yl)methoxy)-2-(3-phenoxybenzyl)malonic acid], the pIC50 (30 minutes at room temperature) was 6.39.
Consider `Nc1nc(Cl)nc2c1ncn2[C@@H]1O[C@H](COC(Cc2cccc(C(F)(F)F)c2)(C(=O)O)C(=O)O)[C@@H](O)[C@@H]1F` [compound 16, 2-(((2R,3R,4S,5R)-5-(6-amino-2-chloro-9H-purin-9-yl)-4-fluoro-3-hydroxytetrahydrofuran-2-yl)methoxy)-2-(3-(trifluoromethyl)benzyl)malonic acid], for which the pIC50 (30 minutes at room temperature) is 6.59.
For `Nc1nc(Cl)nc2c1ncn2[C@@H]1O[C@H](COC(Cc2ccc3ccccc3c2)(C(=O)O)C(=O)O)[C@@H](O)[C@@H]1F` [compound 17, 2-(((2R,3R,4S,5R)-5-(6-amino-2-chloro-9H-purin-9-yl)-4-fluoro-3-hydroxytetrahydrofuran-2-yl)methoxy)-2-(naphthalen-2-ylmethyl)malonic acid], the pIC50 (30 minutes at room temperature) is 6.16.
Take `CS(=O)(=O)c1ccc(CC(OC[C@H]2O[C@@H](n3cnc4c(N)nc(Cl)nc43)[C@@H](F)[C@@H]2O)(C(=O)O)C(=O)O)cc1` [compound 21, 2-(((2R,3R,4S,5R)-5-(6-amino-2-chloro-9H-purin-9-yl)-4-fluoro-3-hydroxytetrahydrofuran-2-yl)methoxy)-2-(4-(methylsulfonyl)benzyl) malonic acid]: the negative-log IC50 (pIC50) (30 minutes at room temperature) is 6.71.
Consider `O=C(O)C(Cc1ccccc1)(OC[C@H]1O[C@@H](n2cnc3c(NCc4ccccc4)nc(Cl)nc32)[C@@H](F)[C@@H]1O)C(=O)O` [compound 28, 2-benzyl-2-(((2R,3R,4S,5R)-5-(6-(benzylamino)-2-chloro-9H-purin-9-yl)-4-fluoro-3-hydroxytetrahydrofuran-2-yl)methoxy)malonic acid], for which the pIC50 (30 minutes at room temperature) is 5.58.
Take `Nc1nc(Cl)nc2c1ncn2[C@@H]1O[C@H](COC(Cc2nnn[nH]2)(C(=O)O)C(=O)O)[C@@H](O)[C@@H]1F` [compound 50, 2-((1H-tetrazol-5-yl)methyl)-2-(((2R,3R,4S,5R)-5-(6-amino-2-chloro-9H-purin-9-yl)-4-fluoro-3-hydroxytetrahydrofuran-2-yl)methoxy)malonic acid]: the pIC50 (30 minutes at room temperature) was 5.72.
As to `Nc1nc(Cl)nc2c1ncn2[C@@H]1O[C@H](COC(Cc2ccccc2)(C(=O)O)C(=O)O)[C@@H](N)[C@H]1O` [compound 51, 2-(((2S,3S,4R,5R)-3-amino-5-(6-amino-2-chloro-9H-purin-9-yl)-4-hydroxytetrahydrofuran-2-yl)methoxy)-2-benzylmalonic acid], the pIC50 (30 minutes at room temperature) was 5.73.
Consider `Nc1nc(Cl)nc2c1ncn2[C@@H]1O[C@H](COC(Cc2cccc(-c3nnn[nH]3)c2)(C(=O)O)C(=O)O)[C@@H](O)[C@@H]1F` [compound 53, 2-(3-(1H-tetrazol-5-yl)benzyl)-2-(((2R,3R,4S,5R)-5-(6-amino-2-chloro-9H-purin-9-yl)-4-fluoro-3-hydroxytetrahydrofuran-2-yl)methoxy)malonic acid], for which the negative logarithm of the IC50 (pIC50) (30 minutes at room temperature) is 6.35.
Still for that read-out and setting: the value for `Nc1nc(Cl)nc2c1ncn2[C@@H]1O[C@H](COC(Cc2ccc(-c3nnn[nH]3)cc2)(C(=O)O)C(=O)O)[C@@H](O)[C@@H]1F` [compound 54, 2-(4-(1H-tetrazol-5-yl)benzyl)-2-(((2R,3R,4S,5R)-5-(6-amino-2-chloro-9H-purin-9-yl)-4-fluoro-3-hydroxytetrahydro-furan-2-yl)methoxy)malonic acid] was 6.66; that for `Nc1nc(Cl)nc2c1ncn2[C@@H]1O[C@H](COC(Cc2cccc(O)c2)(C(=O)O)C(=O)O)[C@@H](O)[C@@H]1F` [compound 56, 2-(((2R,3R,4S,5R)-5-(6-amino-2-chloro-9H-purin-9-yl)-4-fluoro-3-hydroxytetrahydrofuran-2-yl)methoxy)-2-(3-hydroxybenzyl)malonic acid] was 6.77; that for `Nc1nc(Cl)nc2c1ncn2[C@@H]1O[C@H](COC(Cc2ccc(C(=O)O)cc2F)(C(=O)O)C(=O)O)[C@@H](O)[C@@H]1F` [compound 57, 2-(((2R,3R,4S,5R)-5-(6-amino-2-chloro-9H-purin-9-yl)-4-fluoro-3-hydroxytetrahydrofuran-2-yl)methoxy)-2-(4-carboxy-2-fluorobenzyl)malonic acid] was 6.85.
As for `Nc1nc(Cl)nc2c1ncn2[C@@H]1O[C@H](COC(Cc2ccc(C(=O)O)c(F)c2)(C(=O)O)C(=O)O)[C@@H](O)[C@@H]1F` [compound 58, 2-(((2R,3R,4S,5R)-5-(6-amino-2-chloro-9H-purin-9-yl)-4-fluoro-3-hydroxytetrahydro-furan-2-yl)methoxy)-2-(4-carboxy-3-fluorobenzyl)malonic acid], the negative logarithm of the IC50 (pIC50) (30 minutes at room temperature) was 7.42.
Turning to `Nc1nc(Cl)nc2c1ncn2[C@@H]1O[C@H](COC(Cc2ccc(C(F)(F)F)o2)(C(=O)O)C(=O)O)[C@@H](O)[C@@H]1F` [compound 59, 2-(((2R,3R,4S,5R)-5-(6-amino-2-chloro-9H-purin-9-yl)-4-fluoro-3-hydroxytetrahydro-furan-2-yl)methoxy)-2-((5-(trifluoromethyl)-furan-2-yl)methyl)malonic acid], under “30 minutes at room temperature”, the pIC50 is 6.36.
Take `Nc1nc(Cl)nc2c1ncn2[C@@H]1O[C@H](COC(Cc2ccc(C(F)(F)F)c(F)c2)(C(=O)O)C(=O)O)[C@@H](O)[C@@H]1F` [compound 60, 2-(((2R,3R,4S,5R)-5-(6-amino-2-chloro-9H-purin-9-yl)-4-fluoro-3-hydroxytetrahydro-furan-2-yl)methoxy)-2-(3-fluoro-4-(trifluoromethyl)benzyl) malonic acid]: under “30 minutes at room temperature”, the pIC50 was 7.29.
With `Nc1nc(Cl)nc2c1ncn2[C@@H]1O[C@H](COC(Cc2cc(-c3ccccc3)no2)(C(=O)O)C(=O)O)[C@@H](O)[C@@H]1F` [compound 61, 2-(((2R,3R,4S,5R)-5-(6-amino-2-chloro-9H-purin-9-yl)-4-fluoro-3-hydroxytetrahydrofuran-2-yl)methoxy)-2-((3-phenylisoxazol-5-yl)methyl)malonic acid], the negative-log IC50 (pIC50) (30 minutes at room temperature) was 5.65.
Consider `Nc1nc(Cl)nc2c1ncn2[C@@H]1O[C@H](COC(Cc2cnn(Cc3ccccc3)c2)(C(=O)O)C(=O)O)[C@@H](O)[C@@H]1F` [compound 63, 2-(((2R,3R,4S,5R)-5-(6-amino-2-chloro-9H-purin-9-yl)-4-fluoro-3-hydroxytetrahydro-furan-2-yl)methoxy)-2-((1-benzyl-1H-pyrazol-4-yl)methyl)malonic acid], for which the pIC50 (30 minutes at room temperature) was 5.91.
In the case of `Nc1nc(Cl)nc2c1ncn2[C@@H]1O[C@H](COC(Cc2cn[nH]c2)(C(=O)O)C(=O)O)[C@@H](O)[C@@H]1F` [compound 64, 2-((1H-pyrazol-4-yl)methyl)-2-(((2R,3R,4S,5R)-5-(6-amino-2-chloro-9H-purin-9-yl)-4-fluoro-3-hydroxytetrahydrofuran-2-yl)methoxy)malonic acid], the pIC50 (30 minutes at room temperature) is 6.07.
